{
  "source": "patent US20180346879A1",
  "about": "“GENERATION OF MUSCLE-LINEAGE CLELS FROM STEM CELLS” (GENEA IP HOLDINGS PTY LIMITED, priority 2015, published 2018)",
  "assay_type_in_all_cases": "cell-based",
  "key": {"[1]": {"test_system": "GENEA002, GENEA015, and GENEA019 human embryonic stem cell lines", "test": "Myogenic induction in MCDB media with optional THI, FGF2 or LRRK2-IN-1, Hoechst, Pax3 and Pax7 staining", "conditions": "4 days; for cell proliferation (FIGS. 15A-F) / yield of Pax3/7-positive cells (FIGS. 15A-F): 5 μm THI or 5 ng/L FGF2 added to MCDB media, collagen I", "procedure": "GENEA002, GENEA015, and GENEA019 human embryonic stem cell lines were plated on collagen I-coated culture dishes in the following culture media:\n4) MCDB FA ITS: same as MCDB FA with insulin/transferrin/selenium (ITS, 100×)\nA control compound, 5 μm THI (2-acetyl-4(5)-(1,2,3,4-tetrahydroxybutyl)imidazole), or […] FGF2 was optionally added to the media. The LRRK2 inhibitor, LRRK2-IN-1 (1 μM), was optionally added to MCDB MinFA medium. Cells were fixed after 4 days and stained for DNA (Hoechst), Pax3 and Pax7."}, "[2]": {"test_system": "GENEA019 human embryonic stem cells", "test": "Myogenic induction with Wnt pathway modulators, Hoechst and Pax3 staining", "conditions": "modulator 1 μM in medium with Y-27632 10 μM and Alk5 inhibitor 2 μM; 9 days", "procedure": "GENEA019 human embryonic stem cells were plated in Skeletal Muscle Cell Basal Medium (Lonza) with Skeletal Muscle Cell Growth Supplement (Lonza) and horse serum (5%) supplemented with Y-27632 (10 μM) and Alk5 inhibitor (2 μM), and a series of Wnt pathway modulators, including CHIR99021 (1 μM), AZD1080 (1 μM), IWP-L6 (1 μM), D4476 (1 μM), and AT13148 (1 μM). After 9 days in culture, cells were fixed and stained for DNA (Hoechst) and Pax3."}, "[3]": {"test_system": "GENEA019 human embryonic cells", "test": "Myogenic induction on extracellular matrix molecules (collagen I, laminins), Hoechst and Pax7 staining", "conditions": "plate coating; medium with Y-27632 10 μM, CHIR99021 3 μM, Alk5 inhibitor 2 μM; 9 days", "text": "After 9 days, cells were fixed and stained for DNA (Hoechst) and Pax7."}, "[4]": {"test_system": "GENEA019 and GENEA067 human embryonic stem cells", "test": "Differentiation with continuous ROCK inhibition or with ROCK inhibitor removed after attachment", "conditions": "Y-27632 (10 μM) removed one day after plating, compared with continuous presence", "procedure": "Cells were either differentiated further in the same medium with media changes every other day, or one day after plating and after cells had attached, cells were changed to and maintained in the same culture medium but without the ROCK inhibitor, Y-27632 (10 μM)."}, "[5]": {"test_system": "GENEA015 and GENEA019 human embryonic stem cells", "test": "Kinase inhibitor dose range in myogenic induction, Hoechst and Pax7 staining", "conditions": "dose range from 10 nM to 1 μM; 4 days; medium with Y-27632, CHIR99021, Alk5 inhibitor", "procedure": "In addition to LRRK2-IN-1, various other kinase inhibitors were tested in a dose range from 10 nM to 1 μM. Cells were fixed after 4 days and stained for DNA (Hoechst) and Pax7."}, "[6]": {"test_system": "GENEA019 and GENEA067 human embryonic stem cell lines", "test": "Myogenic induction with or without LRRK2-IN-1, phase contrast microscopy", "conditions": "LRRK2-IN-1 1 μM, suppresses flat contaminating cells with large cytoplasms", "text": "(§1) After 9 days, cells were fixed and stained for DNA (Hoechst) and Pax3.\nThe same experiment was repeated using GENEA019 and GENEA067 human embryonic stem cell lines. Cell populations were observed by phase contrast microscopy."}, "[7]": {"test_system": "GENEA019 human embryonic stem cells", "test": "Myogenic induction with or without LRRK2-IN-1, Hoechst and Pax3 staining", "conditions": "LRRK2-IN-1 1 μM added to medium with Y-27632, CHIR99021, Alk5 inhibitor; 9 days", "text": "as §1"}},
  "data": [
    {"compound": "CC(=O)c1ncc(C(O)C(O)C(O)CO)[nH]1", "note": "(stereo not shown) [THI, 2-acetyl-4(5)-(1,2,3,4-tetrahydroxybutyl)imidazole]", "values": [
      {"measurement": "cell proliferation (FIGS. 15A-F)", "setting": "[1]", "result": "neither THI nor FGF2 enhanced"},
      {"measurement": "yield of Pax3/7-positive cells (FIGS. 15A-F)", "setting": "[1]", "result": "neither THI nor FGF2 enhanced"}
    ]},
    {"compound": "FGF2: fibroblast growth factor family member", "values": [
      {"measurement": "cell proliferation (FIGS. 15A-F)", "setting": "[1]", "result": "neither THI nor FGF2 enhanced"},
      {"measurement": "yield of Pax3/7-positive cells (FIGS. 15A-F)", "setting": "[1]", "result": "neither THI nor FGF2 enhanced"}
    ]},
    {"compound": "Cc1c[nH]c(-c2cnc(NCCNc3ccc(C#N)cn3)nc2-c2ccc(Cl)cc2Cl)n1", "note": "[CHIR99021]", "values": [
      {"measurement": "myogenic induction / Pax3-positive cells (FIGS. 17A and 17B)", "setting": "[2]", "result": "promoted myogenic induction and resulted in Pax3-positive cells"}
    ]},
    {"compound": "laminin 521: extracellular matrix molecule coating tissue culture plates", "values": [
      {"measurement": "Pax7-positive satellite-like cell sub population (FIG. 12A)", "setting": "[3]", "result": "favor a satellite-like cell sub population that is Pax7-positive"},
      {"measurement": "cell proliferation (FIG. 12B)", "setting": "[3]", "result": "promote cell proliferation"}
    ]},
    {"compound": "C[C@@H](N)[C@H]1CC[C@H](C(=O)Nc2ccncc2)CC1", "note": "[Y-27632]", "values": [
      {"measurement": "cell growth without continuous ROCK inhibition (FIG. 18)", "setting": "[4]", "result": "significantly growth retarded"},
      {"measurement": "cell population homogeneity during differentiation without continuous ROCK inhibition", "setting": "[4]", "result": "highly heterogeneous cell populations"}
    ]},
    {"compound": "N#Cc1ccc2[nH]c(O)c(-c3ccc(CN4CCOCC4)cn3)c2c1", "note": "[AZD1080]", "values": [
      {"measurement": "myogenic induction / Pax3-positive cells (FIGS. 17A and 17B)", "setting": "[2]", "result": "promoted myogenic induction and resulted in Pax3-positive cells"}
    ]},
    {"compound": "O=C(CSc1nc2c(c(=O)n1-c1ccccc1)SCC2)Nc1ccc(-c2ccccc2)cn1", "note": "[IWP-L6]", "values": [
      {"measurement": "myogenic induction / Pax3-positive cells (FIGS. 17A and 17B)", "setting": "[2]", "result": "blocked myogenic induction"}
    ]},
    {"compound": "COc1cc(C(=O)N2CCC(N3CCN(C)CC3)CC2)ccc1Nc1ncc2c(n1)N(C)c1ccccc1C(=O)N2C", "note": "[LRRK2-IN-1]", "values": [
      {"measurement": "formation of Pax7-positive cells (FIGS. 16A and 16B)", "setting": "[5]", "result": "strongly promoted the formation of Pax7-positive cells in a dose-dependent manner"},
      {"measurement": "proportion of Pax3-positive and Pax7-positive cells (FIGS. 15A-F)", "setting": "[1]; LRRK2-IN-1 1 μM added to MCDB MinFA medium", "result": "strong increase"},
      {"measurement": "purity of cell populations (FIG. 14)", "setting": "[6]", "result": "purer cell populations"},
      {"measurement": "cell proliferation (FIG. 13A)", "setting": "[7]", "result": "promoted cell proliferation"},
      {"measurement": "expression of Pax3 (FIG. 13B)", "setting": "[7]", "result": "increased expression of Pax3"}
    ]}
  ]
}
